What was measured:
Assay type in all cases: in vivo, human
[1] = system: subjects with uterine fibroids; assay: Study 17541: endometrium thickness, 3-month vs 6-month treatment without break (Example 6); conditions: 2 mg once daily, 13 subjects, blinded, preliminary data, 3 or 6 months without break
Description: A randomized, parallel-group, double-blind, placebo-controlled, multi-center study to assess efficacy of a dose of 2 mg of Compound 1 where primary efficacy variable is Endometrium thickness, in subjects with uterine fibroids over 3-month vs 6-month with or without treatment break.
(§1) Route of administration: Oral
Duration of treatment: 2×12 weeks (A1) or 1×12 weeks (A2) without treatment break
(§2) Women, 18 to 50 years old, with uterine fibroids documented by transvaginal or abdominal ultrasound at screening with at least 1 uterine fibroid with largest diameter 3 cm and Heavy Menstrual Bleeding (HMB) 80∃ ml were eligible for enrolment in the study.
Number of Women: 13 subjects having finished the treatment so far.
Eligible subjects were equally randomized to one of the treatment groups (Placebo, 2 mg of Compound 1). Treatment period was started during the first three days of the bleeding episode following randomization or ongoing at randomization. The treatment period will consist of 3 months (12 weeks) or 6 months [2×12 weeks (84 days)] of daily tablet intake without treatment break. • Treatment A1: 2 mg of Compound 1 (12 weeks), 2 mg of Compound 1 (12 weeks). • Treatment A2: Placebo (12 weeks), 2 mg of Compound 1 (12 weeks).
After the end of treatment period, subjects were followed up for 12 weeks. […]

[2] = system: subjects with uterine fibroids; assay: Study 17541: amenorrhea, 3-month vs 6-month treatment (Example 5)
Description: A randomized, parallel-group, double-blind, placebo-controlled, multi-center study to assess efficacy of a dose of 2 mg of Compound 1 where primary efficacy variable is Amenorrhea, in subjects with uterine fibroids over 3 months [1×12 weeks] and 6 months [2×12 weeks without treatment break].
Test drug: Compound 1 Doses: 2 mg, once daily
as §1
Duration of treatment: 2×12 weeks without treatment break
as §2
Eligible subjects will be equally randomized to one of the treatment groups (Placebo, 2 mg of Compound 1). Treatment will start during the first week of the menstrual cycle following randomization. The treatment period will consist of 1×12 and 2×12 weeks (84 days) of daily tablet intake. • Treatment A1: 2 mg of Compound 1 (12 weeks), 2 mg of Compound 1 (12 weeks) without treatment break • Treatment A2: Placebo (12 weeks), 2 mg of Compound 1 (12 weeks).
Efficacy Measurement: • daily documentation of bleeding intensity (electronic diary or eDiary) • Menstrual Pictogram MP (electronic diary or eDiary).
Onset of amenorrhea is defined by the first day for which the menstrual blood loss (assessed by MP) for all subsequent 28-day periods up to the end of the treatment period is less than 2 ml.
The primary endpoint amenorrhea (no/yes) was based on the bleeding intensity recorded in the eDiary/Daily bleeding diary.

uterine fibroids = assay: Study 15788: change in volume of largest fibroid by MRI and TVU (Example 8)
Description: A randomized, parallel-group, double-blind, placebo-controlled, multi-center study to assess efficacy of different doses of Compound 1 where secondary efficacy variable is the change in volume of the largest fibroid in subjects wherein treatment is of 3 months [1×12 weeks (84 days)]. Doses: 0.5 mg, 1 mg, 2 mg, or 4 mg once daily Route of administration: Oral Duration of treatment: 1×12 weeks (84 days) Women, 18 to 50 years old, with uterine fibroids documented by transvaginal or abdominal ultrasound at screening with at least 1 uterine fibroid with largest diameter 3 cm and heavy menstrual bleeding (HMB) 80 ml were be eligible for enrolment in the study. The secondary efficacy variable is the percent change in volume of the largest fibroid compared to baseline (measured by MRI and TVU) • MRI: Magnetic Resonance Imaging • TVU: Transvaginal/abdominal ultrasound Ultrasound examination was performed consistent with the schedule of procedures (Table 1). For each subject, the most appropriate ultrasound method (transvaginal or abdominal) was used depending on fibroid location and this method was consistently used throughout the study. The same ultrasound machine (per site) should be used throughout the study. The 3 largest fibroids were identified during the screening period. […]

[3] = system: subjects with uterine fibroids; assay: Study 17541: endometrium thickness, 2x3-month treatment with break period (Example 7); conditions: 2 mg once daily, 6 subjects, blinded, 2x12 weeks with 1 bleeding episode break or 1x12 weeks
Description: A randomized, parallel-group, double-blind, placebo-controlled, multi-center study to assess efficacy of a dose of 2 mg of Compound 1 where primary efficacy variable is Endometrial thickness, in subjects with uterine fibroids over 2×3-month with break period allowing bleeding episode.
as §1
Duration of treatment: 2×3-month [2×12 weeks]+one bleeding episode (B1) and 1×3-month [1×12 weeks] (B2) without treatment break
Women, 18 to 50 years old, with uterine fibroids documented by transvaginal or abdominal ultrasound at screening with at least 1 uterine fibroid with largest diameter 3.0 cm and heavy menstrual bleeding (HMB) […] were eligible for enrolment in the study.
Number of Women: 6 subjects that have finalized the treatment
Eligible subjects were equally randomized to one of the treatment groups (Placebo, 2 mg of Compound 1). Treatment period was started during the first three days of the bleeding episode following randomization or ongoing at randomization. The treatment period was consisting of daily tablet intake without treatment break. • Treatment B1: 2 mg of Compound 1 (12 weeks), 1 bleeding episode, 2 mg of Compound 1 (12 • weeks). • Treatment B2: Placebo (12 weeks), 1 bleeding episode, 2 mg of Compound 1 (12 weeks).
Efficacy Measurement: • endometrial biopsies, • cervical smear, • transvaginal ultrasound (TUV) (endometrial thickness, ovaries). […]

healthy subjects = assay: Amenorrhea in healthy subjects
Description: Compound 1 is a potent Selective Progesterone Receptor Modulator (SPRM) and more particularly a competitive Progesterone Receptor (PR) antagonist creating alternatives for the treatment of Uterine Fibroids. […] Amenorrhea corresponds to the major objective of the treatment i.e. control of excessive uterine bleeding.

[4] = 6 months (2x12 weeks without treatment break)

- Endometrial size [1]: ≤ 18 mm
- Rate of subjects with endometrial thickness above 18 mm [2, 4]: not found to be increased
- Endometrial size [3]: ≤ 18 mm
SMILES: C[C@]12C[C@H](c3ccc(S(C)(=O)=O)cc3)C3=C4CCC(=O)C=C4CC[C@H]3[C@@H]1CC[C@@]2(O)C(F)(F)C(F)(F)F [Compound 1, (11β,17β)-17-Hydroxy-11-[4-(methylsulphonyl)phenyl]-17-(pentafluoroethyl)estra-4,9-dien-3-one]
- Treatment-emergent critical endometrial findings [1]: no treatment-emergent critical endometrial findings occurred
- Amenorrhea until 6 months of treatment ([2]; 2 mg once daily, 2x12 weeks without treatment break, preliminary data): amenorrhea observed after 1×12 weeks is maintained
- Rates of adverse events with regard to ovarian cysts or bleeding [2, 4]: do not show increased rates of adverse events
- Fibroid size during treatment (uterine fibroids; 0.5-4 mg once daily, 12 weeks, MRI and TVU): dose-dependent reduction in fibroid size
- Effect on fibroid size during follow-up (uterine fibroids; follow-up after 12 weeks treatment): partially sustained during follow-up
- Treatment-emergent critical endometrial findings [3]: no treatment-emergent critical endometrial findings occurred
- Amenorrhea (healthy subjects): Amenorrhea was observed
